Measured values from patent publication US6395748B2, “Tropane-derivatives, their preparation and use” (NeuroSearch A/S, priority 1996, dated 2002).

Assays:
serotonin transporter = target: T1, serotonin transporter (Rattus norvegicus, UniProt P31652); test: In vitro inhibition of 3H-5-hydroxytryptamine (3H-5-HT, serotonin) uptake in cortical synaptosomes; format: biochemical
T1 construct: Cerebral cortices from male Wistar rats (150-200 g) are homogenized; from tissue; host or cells: rat cerebral cortex synaptosomes (P2 pellet)
Protocol: Tissue preparation: Preparations are performed at 0-4° C. unless otherwise indicated. […] Monoamine oxidase activity will be inhibited in the presence of pargyline. The homogenate is centrifuged at 1000×g for 10 min.
(§1) Non-specific uptake is determined using citalopram (1 μM, final concentration). After incubation the samples are poured directly onto Whatman GF/C glass fibre filters under suction. The filters are then washed three times with 5 ml of ice-cold 0.9% (w/v) NaCl solution. The amount of radioactivity on the filters is determined by conventional liquid scintillation counting. Specific uptake is calculated as the difference between total uptake and non-specific uptake.

dopamine transporter = target: T2, dopamine transporter (Rattus norvegicus, UniProt P23977); test: In vitro inhibition of 3H-dopamine (3H-DA) uptake in striatal synaptosomes; format: biochemical
T2 construct: Corpi striati from male Wistar rats (150-200 g) are homogenized; from tissue; host or cells: rat striatal synaptosomes (P2 pellet)
Protocol: Monoamine oxidase activity will be inhibited in the presence of pargyline. The homogenate is centrifuged at 1000×g for 10 min. The resulting supernatant is then centrifuged at 27,000×g for 50 min and the supernatant is discarded.
as §1, with “After” for “Non-specific uptake is determined using citalopram (1 μM, final concentration). After”

T2 sequence (P23977 whole entry): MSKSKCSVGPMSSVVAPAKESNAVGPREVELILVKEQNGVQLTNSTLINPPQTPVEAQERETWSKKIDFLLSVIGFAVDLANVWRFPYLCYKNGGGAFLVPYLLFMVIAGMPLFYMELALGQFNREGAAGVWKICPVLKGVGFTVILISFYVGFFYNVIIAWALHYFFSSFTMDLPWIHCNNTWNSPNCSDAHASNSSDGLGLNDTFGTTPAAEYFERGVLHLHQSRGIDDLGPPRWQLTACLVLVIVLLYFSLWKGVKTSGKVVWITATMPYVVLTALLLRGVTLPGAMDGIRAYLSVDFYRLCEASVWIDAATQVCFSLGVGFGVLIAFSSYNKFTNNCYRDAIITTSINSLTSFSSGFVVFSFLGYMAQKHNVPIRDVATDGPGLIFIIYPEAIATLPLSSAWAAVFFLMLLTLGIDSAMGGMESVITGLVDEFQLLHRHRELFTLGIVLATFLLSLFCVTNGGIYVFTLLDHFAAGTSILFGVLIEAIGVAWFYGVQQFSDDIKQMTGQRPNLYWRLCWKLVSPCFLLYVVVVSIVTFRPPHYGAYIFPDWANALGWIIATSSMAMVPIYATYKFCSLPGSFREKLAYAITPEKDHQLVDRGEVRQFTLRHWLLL
T1 sequence (P31652 whole entry): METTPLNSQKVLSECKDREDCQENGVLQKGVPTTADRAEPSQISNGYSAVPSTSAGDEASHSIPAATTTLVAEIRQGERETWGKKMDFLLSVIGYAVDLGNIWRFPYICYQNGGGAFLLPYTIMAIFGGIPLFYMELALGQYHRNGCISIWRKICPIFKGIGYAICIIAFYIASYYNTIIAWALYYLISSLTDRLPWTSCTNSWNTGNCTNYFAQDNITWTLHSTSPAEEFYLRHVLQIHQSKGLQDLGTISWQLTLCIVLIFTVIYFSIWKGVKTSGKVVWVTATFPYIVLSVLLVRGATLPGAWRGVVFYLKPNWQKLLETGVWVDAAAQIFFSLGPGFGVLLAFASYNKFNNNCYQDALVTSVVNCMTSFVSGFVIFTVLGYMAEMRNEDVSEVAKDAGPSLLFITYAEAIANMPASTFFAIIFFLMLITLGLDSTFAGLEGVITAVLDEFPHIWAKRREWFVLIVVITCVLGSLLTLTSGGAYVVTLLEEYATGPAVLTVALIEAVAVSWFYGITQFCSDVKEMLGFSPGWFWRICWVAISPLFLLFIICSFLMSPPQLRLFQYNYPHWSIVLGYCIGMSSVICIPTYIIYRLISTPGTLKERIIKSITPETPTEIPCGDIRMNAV

SMILES: CN1[C@H]2CC[C@@H]1[C@H](CSc1ccccc1)[C@@H](c1ccc(Cl)c(Cl)c1)C2 [(1R,2R,3S)-2-phenylthiomethyl-3-(3,4-dichlorophenyl)-tropane]
- IC50 (serotonin transporter): 9.2 nM
- IC50 (dopamine transporter): 4.3 nM
